“Also recorded” adds a separate entry of the source.
Legend:
[1] = system: hRARα, β and γ LBDs; experiment: ESI-MS in non-denaturing conditions, binding to RAR LBD isotypes; design: species or system human; details: 5-fold molar excess of ligand
Protocol: (§1) cDNAs encoding hRXRα LBD (223-462), hRARα LBD (153-421), hRARBβ LBD (169-414) and hRARγ LBD (178-423) were cloned into pET28b vector to generate N-terminal Histag fusion proteins. Purification was carried out as previously described [Lippert W P et al. 2009, Osz J, et al. 2012], including a metal affinity chromatography and a gel filtration. For details of sample preparation and ESI-MS analyses see below.
cDNAs encoding hRXRαLBD (223-462), hRARαLBD (153-421), hRARβLBD (169-414) and hRARγ LBD (178-423) were cloned into pET28b vector to generate N-terminal His-tag fusion proteins. Purification was carried out as previously described [Lippert W P et al. 2009, Osz J, et al. 2012], including a metal affinity chromatography and a gel filtration. Prior to ESI-MS analysis, samples were desalted on Zeba Spin desalting columns (Pierce) in 150 mM ammonium acetate (pH 8.0). ESI-MS measurements were performed on an electrospray time-of-flight mass spectrometer (MicrOTOF, Bruker Daltonics). Purity and homogeneity of the proteins were verified by mass spectrometry in denaturing conditions (samples were diluted at 2 pmol/μl in a 1:1 water-acetonitrile mixture (v/v) acidified with 1% formic acid). The mass measurements of the noncovalent complexes were performed in ammonium acetate (200 mM; pH 8.0). […]

[2] = system: differentiating monocyte-derived human dendritic cells; experiment: DNA microarray in differentiating monocyte-derived dendritic cells; type: cell-based
Protocol: The generation and transcriptional analysis of differentiating DCs were performed as described previously [Szeles L et al. 2010]. Microarray data were deposited into the Gene Expression Omnibus database under accession no. GSE48573.
The generation and analysis of differentiating DCs were performed as described previously [Szeles L et al. 2010] with minor modifications. Briefly, human monocytes were isolated from healthy volunteer's buffy coat, obtained with a Regional Ethical Board permit from the Regional Blood Bank and isolated by Ficoll gradient centrifugation followed by immunomagnetic cell separation, and were cultured in the presence of GM-CSF and IL-4. Differentiating DCs were stimulated 18 h after […] by various agonists for 12 h. The ligands were used in the following concentrations: 10 μM (R)-9CDHRA, 10 μM (S)-9CDHRA, 1 μM 9cisRA, 100 nM LG100268, 1 μM GW3965, 1 μM Rosiglitazone (RSG), 1 μM GW1516, 100 nM AM580. Experiments were performed in biological triplicates. Samples were processed and hybridized to Human Genome U133 Plus 2.0 Arrays. Data were analysed using to GeneSpring 12.6.1 software. In detail, normalization was performed using RMA summarization algorithm. […] Microarray data were deposited into the Gene Expression Omnibus database under accession no. GSE48573.

[3] = target: T1, hRXRα LBD (Homo sapiens, UniProt P19793); experiment: ESI-MS in non-denaturing conditions, binding to RXR LBD; design: cDNAs encoding hRXRα LBD (223-462); His-tag (N); made in house; details: 5-fold molar excess of ligand
T1 sequence (P19793 223-462): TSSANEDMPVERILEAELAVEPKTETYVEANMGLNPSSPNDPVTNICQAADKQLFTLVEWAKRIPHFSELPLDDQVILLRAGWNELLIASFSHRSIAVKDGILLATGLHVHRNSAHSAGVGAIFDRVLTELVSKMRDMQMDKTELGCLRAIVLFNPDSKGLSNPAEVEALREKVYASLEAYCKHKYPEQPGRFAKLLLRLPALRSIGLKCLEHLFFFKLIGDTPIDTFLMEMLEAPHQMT
Protocol: as §1
cDNAs encoding hRXRαLBD (223-462), hRARαLBD (153-421), hRARβLBD (169-414) and hRARγ LBD (178-423) were cloned into pET28b vector to generate N-terminal His-tag fusion proteins. Purification was carried out as previously described [Lippert W P et al. 2009, Osz J, et al. 2012], including a metal affinity chromatography and a gel filtration. Prior to ESI-MS analysis, samples were desalted on Zeba Spin desalting columns (Pierce) in 150 mM ammonium acetate (pH 8.0). ESI-MS measurements were performed on an electrospray time-of-flight mass spectrometer (MicrOTOF, Bruker Daltonics). Purity and homogeneity of the proteins were verified by mass spectrometry in denaturing conditions (samples were diluted at 2 pmol/μl in a 1:1 water-acetonitrile mixture (v/v) acidified with 1% formic acid). The mass measurements of the noncovalent complexes were performed in ammonium acetate (200 mM; pH 8.0). Samples were diluted to 8 pmol/ml in the previous buffer and continuously infused into the ESI ion source at a flow rate of […] through a Harvard syringe pump (Harvard Apparatus model 11). A careful optimization of the interface parameters was performed to obtain the best sensitivity and spectrum quality without affecting the noncovalent complexes stability. In particular, the capillary exit (CE) ranged from 60 to 150 V with a vacuum interface pressure of 2.3 mbar and was set to 80 V. For ligand-interaction analysis, ligands were added to the proteins in a 5-fold molar excess.

[4] = system: Rbp1−/−, Rxrγ−/− and WT mice; experiment: Forced swim test after acute treatment; type: in vivo, mouse; details: Rbp1−/− mice, acute i.p. treatment 5-6 h before the test
Protocol: (§2) The forced swim paradigm was carried out between 1 pm and 4 pm in a 3-litre glass beaker half-filled with water at 22-23° C. (the water depth was 17 cm). All mice were tested only once in this task. To this end, each mouse was lowered gently into the water and the time of immobility was scored during a 6-minute testing period. The mouse was judged immobile when it floated in an upright position and made only small movements to keep its head above the water. After 6 min, the mouse was taken out of the water, left to dry under a red light lamp and returned to its home cage. The immobility scores of each animal were used as an index of despair behavior.
(§3) Vehicle treatments consisted of 3% ethanol and 3% DMSO solution in sunflower oil. Treatments were administered by intraperitoneal injections at volume/weight ratio 3 ml/kg between 8-10 am and 5-6 h before the test as previously validated (Wietrzych-Schindler M, 2011).
as §2, with “paradigm (Dalvi and Lucki, 1999)” for “paradigm”, “2-litre” for “3-litre”

[5] = system: Rbp1−/−, Rxrγ−/− and WT mice; experiment: Delayed non-match to place (DNMTP) working memory task in the T-maze; type: in vivo, mouse; details: ITI of 6 min
Protocol: Behaviorally naïve groups of mice were tested in the DNMTP (delayed non-match to place) procedure in the T-maze according to a protocol previously described (Wietrzych et al., 2005), with modifications to facilitate pharmacological tests (Wietrzych-Schindler et al., 2011). Spontaneous alternation was evaluated in the Ymaze apparatus according to protocol described in detail below.
Specifically, in the present protocol, animals were first trained for 10 consecutive days with minimal inter-trial intervals (ITI) of about 15 sec, which was necessary to attain the criterion of 90% or more of correct choices during […] consecutive days (days 9-10). After this period ITI was increased semi-randomly by blocks of 3-6 min during 5 consecutive days (days 11-15 indicated) to determine “test ITI” for each animal, which was defined as the shortest ITI at which mice perform at chance level. From day 16 mice were tested using corresponding “test ITI” delays following vehicle injection on the day 16 (to test for the effect of vehicle alone) and following 9CDHROL (40 mg/kg) injection on day 17. Three mice were excluded from testing since their latency to choose the arm during the retention phase exceeded 3 min in more than one trial/day on three consecutive days (exclusion criterion). On the day 18 mice were again injected (IP) with 9CDHROL (40 mg/kg) and 9 hours later sacrificed for chemical analyses. Mice which received vehicle injections on three consecutive days were used as vehicle-treated controls for analyses of 9CDHROL metabolism. An additional group of 3 naïve mice was also injected with 9CDHROL (40 mg/kg) to test for 9CDHROL metabolism following acute treatment.
In this variant, animals were first trained for 9 consecutive days of with minimal inter-trial intervals (ITI) of about 15 sec, which was necessary to attain the criterion of 90% or more of correct choices during three consecutive days (days 7-9). After this period ITI was increased semi-randomly to 180, 360, 720 and for some WT mice also 1080 seconds so that each animal was tested 6 times with each interval during four consecutive days (days 10-13 indicated). From day 13 mice were tested only twice per week beginning with training session on day one (with minimal, 15 sec ITIs) and testing pharmacological treatments on the second day. Only one pharmacological treatment was tested every 7 days. To test pro-mnemonic activities of UVI2108 and (R)-9CDHRA inventors used a minimal ITI, at which mice performed at chance level (50%) and which was 6 min for the Rbp1−/− or Rxrγ−/− groups and 12 min for most WT mice with exception of two mice tested at 18 min. Four mice (two wild types and one of each knockout line), were excluded from testing since their latency to choose the arm during the retention phase exceeded 3 min in more than one trial/day on three consecutive days (exclusion criterion).
For behavioral analysis, 9CDHROL and 9CDHBC were dissolved in ethanol, and then mixed with sunflower oil, so that the final solution contained 3% ethanol. Vehicle treatments consisted of 3% ethanol solution in sunflower oil. For memory studies treatments with 9CDHRA were administered by intraperitoneal injections at volume/weight ratio 3 ml/kg at 7 am and 7 hours before the beginning of testing. For tests with animal model of chronic social defeat, different treatments were administered by intraperitoneal injections at volume/weight ratio 3 ml/kg at 10 mg/kg for each substance between 5-6 pm every second day of stress protocol immediately after the stress session starting from day 1 of the stress protocol.
as §3

[6] = system: Rbp1−/− and Rxrγ−/− mice; experiment: Y-maze spontaneous alternation; type: in vivo, mouse; details: 5-6 hours prior to testing
Protocol: The Y-maze apparatus and the procedure were as previously described (Wietrzych et al., 2005). Briefly, each mouse was placed at the end of one arm and allowed to explore freely the apparatus for 5 min, with the experimenter out of the animal's sight. Spontaneous alternation performance (SAP) was assessed visually by scoring the pattern of entries into each arm and expressed as a percentage of total number of entries, discounting the first two visits. Total entries were scored as an index of ambulatory activity in the Y-maze, but none of tested mice had to be excluded due to low locomotor performance (score below 9 entries).
as §3

[7] = Mouse oral supplementation, retinoid levels in serum, brain and liver (LC-MS); type: in vivo; details: mice
Protocol: For metabolic analyses ATROL, 9CDHROL, 9CDHBC and control solutions were prepared as described above. Single per os application of the dose of 40 mg/kg of each substance was used to treat mice in the evening and samples were collected 11 h later in the light protected conditions, weighted, frozen in liquid nitrogen and stored at −80° C. until analyses. Serum was prepared and immediately stored in brown vials at −80° C., till further analysis.
Accordingly, for sample preparation 100 mg of the material (if samples were under 100 mg, water was added up to the used standard weight: 100 mg) or 100 μl serum was diluted with a threefold volume of isopropanol, the tissues were minced by scissors, vortexed for 10 seconds, put in a ultrasonic bath for 5 minutes, shaken for 6 minutes and centrifuged at 13000 rpm in a Heraeus BIOFUGE Fresco at +4° C. […] The dried extracts were resuspended with 30 μl of methanol—MTBE (50-50) and transferred into the autosampler and 10 μl subsequently analysed.
Mouse brain samples were prepared according to the procedure described above. Briefly, after single per os application of the dose of 40 mg/kg of 9CDHROL (or other cited substances) in the evening mice were sacrificed after 11 hours and tissues samples including brain were dissected under light-protection conditions, weighted, frozen in liquid nitrogen and stored at −80° C. until analyses. Serum was prepared and immediately stored in brown vials at −80° C., till further analysis.
For mouse supplementation experiments we treated n=6 mice per os with 40 mg/kg bw 9CDHROL and 11 h after the treatment the mice were killed and blood, brain and liver was taken. After centrifugation of the drawn blood, serum was obtained.

[8] = system: oligodendrocytes cell line 158N; experiment: Metabolic conversion in mouse oligodendrocytes cell culture (LC-MS); type: in vitro ADME
Protocol: Normal immortalized oligodendrocytes cell line 158N was cultured as previously reported (Feutz et al., 2001). Expediently, cells were cultured in supplemented with 5% calf serum (Invitrogen, France). When cells attained 70% of confluency they were treated with 10^−2 M ethanol solution of one of the following compounds: 9CDHROL, 9CDHROL-acetate, 9CDHRA-ethyl ester. 9CDHRA and ethanol as controls, vehicle treatment. 18 h after treatment cells were collected in amber Eppendorf tubes and stored at −80° C. until analyses. Treatments and cell collection were carried out in light limited conditions to avoid photolysis of retinoids.
(§4) In a slight variant of the method, after reaching confluency of 80% cells were treated with 9CDHROL, 9CDH-retinyl ester (acetate, 9CDHROL-ES), 9CDHRA, 9CDH-retinoyl ester, (ethyl ester, 9CDHRA-ES), ATROL, 9CDHBC, 9CBC and ATBC at a concentration of 10^−6 M or ethanol at corresponding concentration was used as control vehicle treatment. Cells were harvested 18 hours later, centrifuged, weighted, frozen in liquid nitrogen and stored at −80° C. until analyses.
(§5) High performance liquid chromatography mass spectrometry (LC-MS) was carried out as described in Example 4.

[9] = system: human oligodendrocytes cell cultures; experiment: Metabolic conversion in human oligodendrocytes cell culture (HPLC-MS); type: in vitro ADME; details: 10^−6M, n=3
Protocol: as §4, §5
9CDHRA levels including standard deviation in human oligodendrocytes cultures were assessed using HPLC-MS analysis after control treatment using ethanol (CTRL), as well as ATROL treatment (ATROL), 9CBC treatments (9CBC), ATBC treatments (ATBC), 9CDHBC treatment (9CDHBC), 9CDHROL treatments (9CDHROL), 9CDHROL-ester treatments (9CDHROL-ES), 9CDHRA treatments (9CDHRA) or 9CDHRA-ester treatments (9CDHRA-ES), each with 10^−6M concentration and n=3 (FIG. 14D).

[10] = per os 40 mg/kg, 11 h after treatment

CC1=C(/C=C/C(C)=C\C=C\[C@@H](C)CC(=O)O)C(C)(C)CCC1 [(S)-9CDHRA, (9Z,13S)-13,14-Dihydroretinoic Acid]
binding to RAR LBD isotypes in ESI-MS [1]: bind to all RAR LBD isotypes | overlap in transcriptional changes with 9CRA [2]: about 80% | expression of genes that are direct targets of RXR permissive heterodimers (LXR-RXR, PPAR-RXR) and RAR-RXR ([2]; 9CDHRA 10 μM, 9CRA 1 μM, LG268 100 nM, GW3965 1 μM, RSG 1 μM, GW1516 1 μM, AM580 100 nM): induced the expression of genes | binding to RXR LBD in ESI-MS [3]: lower affinity

CC1=C(/C=C/C(C)=C/C=C/C(C)=C/C(=O)O)C(C)(C)CCC1 [ATRA, all-trans-retinoic acid]
immobility (despair) in the forced swim test [4]: reduced significantly immobility time | working memory performance in DNMTP task ([5]; Rbp1−/− mice, acute treatment, (R)-9CDHRA 1 or 2 mg/kg): reversed memory deficits | working memory performance in DNMTP task ([5]; Rxrγ−/− mice): remained ineffective | working memory in spontaneous alternation in the Y-maze ([6]; Rbp1−/− mice, ATRA 5 mg/kg, UVI2108 1 mg/kg, MA 5 mg/kg, DHA 1 mg/kg, TTNPB 5 mg/kg): normalised; also recorded: pro-mnemonic effects | working memory in spontaneous alternation in the Y-maze ([6]; Rxrγ−/− mice, same doses): not

CC1=C(/C=C/C(C)=C/C=C/C(C)=C/CO)C(C)(C)CCC1 [ATROL, all-trans-retinol, reference compound]
ATROL levels in mouse organs after treatment ([7]; oral gavage 40 mg/kg): strongly and significantly increased ATROL levels | 9CDHRA levels in serum, brain and liver after treatment (conversion to 9CDHRA) [7, 10]: significantly increased levels in brain and liver | 9CDHROL levels in serum, brain and liver after treatment [7, 10]: did not increase | ATROL levels in cells after treatment ([8]; 10^−6M): strongly and significantly increased ATROL levels | 9CDHROL levels in cells after treatment ([8]; 10^−6 M, 18 hours): no or just a weak increase; also recorded: weak significant increase | conversion to 9CDHRA ([8]; data not shown): not converted to 9CDHRA | 9CDHRA levels in cells after treatment (metabolism / accumulation) [9]: not converted to 9CDHRA

From patent publication US12029715B2, “Precursor compounds for providing retinoids of the vitamin A5 pathway and uses thereof” (UNIVERSITY OF DEBRECEN, priority 2015, dated 2024)
